“Also recorded” adds a separate entry of the source.
What was measured:
Per2 = Per2 mRNA in mouse liver (qPCR); format: in vivo; details: 25 and 50 mg/kg i.p., 6 h
Experimental: FIGS. 5A-5G are an illustration of FORMULA I decreased the nuclear CRY1 in mice liver. FORMULA I (25 mg/kg or 50 mg/kg) or vehicle intraperitoneally administered to C57BL/6J mice. 6 h after the treated mice were sacrificed (n=3). […] FIGS. 5A-5B show an effect of FORMULA I in WCL. FIG. 5C-5D show an effect of FORMULA I in cytosolic fraction. FIGS. 5E-5F show an effect of FORMULA I in nuclear fraction of muce liver. […] (Data represent the mean±SEM, n=3 (with duplicates in RT-PCR) *: p<0.05 versus control by student t-test).
QIAGEN RNeasy Mini Kit was used to isolate the mRNA. Protocol provided by the manufacturer was followed. On-column DNase treatment was performed with the DNase enzyme provided with the kit. […] Quantity of RNA was determined by Nanodrop 2000 (Thermo Scientific). […] For quantitative real time PCR (qRT-PCR) analysis cDNAs were further diluted 5-fold (1:5). mRNA expression levels were calculated by qRT-PCR with the SYBR Green. […] 10 seconds denaturation, 57 to 62° C. for 20 seconds annealing (the degree is determined by primer type) and 72° C. for 30 seconds of elongation, 35 cycles. […]
Since CRYs are stabilized and degraded differently in cytosolic and nuclear compartments, we further analyzed the level of CRY1 in the cytosolic and nuclear fraction of the mouse liver. […]

[1] = Brain tissue levels in mice; format: in vivo, mouse; details: 100 mg/kg i.p.
Experimental: C57BL/6J female mice (n=4 per each time point) were treated with 100 mg/kg single dose of FORMULA I intraperitoneally. Blood samples were collected 0, 0.5, 1, 2, 4, 8, 12 and 24 h after administration of FORMULA I by cardiac puncture under isoflurane anesthesia. Plasma was obtained by centrifugation from heparinized tubes and stored at −80° C. until analysis. Brain tissues were quickly removed and stored at −80° C. for further processing. For assessment of the brain exposure of FORMULA I, levels in this tissue were only determined at 2nd (n=2) and 4th (n=2) hours according to maximum concentrations of the molecule in plasma.
Liquid chromatography coupled to tandem mass spectrometry (LC-MS/MS) was used to obtain high mass accuracy data of the analytes in plasma samples for the determination of FORMULA I and Internal standard (IS) Loratadine. […] The optimized conditions of the electrospray ionization (ESI) source were as follows: gas temperature, 300° C.; gas flow, 10 L/min; nebulizer pressure, 25 psi; capillary voltage, 5500 V. ESI in the positive ion mode provides the best results for FORMULA I. For MS-MS detection, the protonated molecules were selected as precursor ions and the most abundant fragment ions obtained at collision energy of 22-20 eV were monitored as the product ions for FORMULA I and IS. […]

C57BL/6J mice = assay: Circadian behavioral analysis (locomotor activity); format: in vivo, mouse; details: constant dark conditions
Experimental: C57BL/6J mice were synchronized 10 days under 12 h:12 h light-dark cycles. After 10 days mice were treated with intraperitoneal dose of 60 mg/kg FORMULA I or vehicle for 14 days and kept under constant darkness (n=12). Locomotor activity of mice were recorded for additional 10-days without any injection. During these days locomotor activity of mice were recorded by ClockLab (Actimetrics) software program. FIG. 7A Representative locomotor activity of mice injected with vehicle (n=5) or FIG. 7B FORMULA I (n=7). FIG. 7C Period and FIG. 7D amplitude of mice under different conditions and injected with vehicle or FORMULA I. Period and amplitude values were calculated by using ClockLab Analysis (Actimetrics) program. Statistical significance was evaluated using one-way analysis of variance (ANOVA), followed by a Tukey's multiple comparisons test using Prism software (GraphPad Software)
Mice were housed in individual cages within a temperature- and humidity-controlled, light-tight enclosure. Each cage contained a running wheel. Food and water were allowed ad libitum. Animals were entrained to a 12:12 h L:D cycle for ≥2 weeks before being released into constant darkness. Then, vehicle (n=5) and FORMULA I (n=6) administered to animals for 5 days and then animals were kept under constant conditions for more than 2 weeks. […]

Cc1c(C(=O)N2CCc3ccccc32)oc2ccc3c(c12)C(=O)CC(C)(c1ccc(Cl)cc1)O3 (centres unmarked) [FORMULA I, 11-(4-chlorophenyl)-4-(2,3-dihydro-1H-indole-1-carbonyl)-3,11-dimethyl-5,10,dioxatricyclo[7.4.0.0,2,6,]trideca-1,3,6,8-tetraen-13-one]
Per2 mRNA level in liver (Per2): significantly increased; also recorded: increased the mRNA level of Per2
blood-brain barrier crossing [1]: crosses the blood-brain barrier
detection in brain tissue ([1]; 2nd and 4th hours): detected in the brain tissue
amplitude of locomotor activity (C57BL/6J mice): statistically significant impact on the amplitude
shortening of locomotor period length versus vehicle (C57BL/6J mice): approximately 14 min

Source: patent US20230104487A1, “11-(4-CHLOROPHENYL)-4-(2,3-DIHYDRO-1H-INDOLE-1-CARBONYL)-3,11-DIMETHYL-5,10,DIOXATRICYCLO[7.4.0.0,2,6,]TRIDECA-1,3,6,8-TETRAEN-13-ONE AND DERIVATIVES AS DESTABILIZER OF CRY1 FOR THE TREATMENT OF CIRCADIAN RHYTHM ASSOCIATED DISEASES AND DISORDERS” (KOC UNIVERSITESI, priority 2019, published 2023)
